From patent US5324725A, “7-fused 2-(piperazinoalkyl) indole derivatives, intermediates and compositions thereof” (Kali-Chemie Pharma GmbH, priority 1991, dated 1994)

Assays:
[1] = tested on: Passive cutaneous anaphylaxis (P.C.A.); assay: Inhibition of passive cutaneous anaphylaxis (P.C.A.); type: in vivo, rat (Sprague-Dawley); details: Rattus norvegicus, 1 h; rats, 2 × 10^-5 mol/kg p.o., one hour before ovalbumin challenge
Procedure, shortened: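 Sprague-Dawley rats (150-180 g) were sensitized intradermally with rat IgE-rich anti-ovalbumin serum and challenged 24 h later with i.v. ovalbumin 8.25 mg/kg plus Evans blue. Compound was given orally at 2×10^-5 mol/kg 1 h before challenge. Dye exudation was scored visually at 30 min as % inhibition versus vehicle controls.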

[2] = tested on: Histamine-induced anaphylactoid reactions; assay: Inhibition of anaphylactoid cutaneous reaction induced by histamine; type: in vivo, rat (Sprague-Dawley); details: Rattus norvegicus, 1 h; rats, 2 × 10^-5 mol/kg p.o., one hour before challenge; histamine intradermal
Procedure, shortened: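 Animals received 50 μl intradermal histamine (0.8 mg/ml in saline) in the flank opposite the antiserum site, just before i.v. ovalbumin plus blue dye. Test substance at 2×10^-5 mol/kg was given orally 1 h before challenge in water with 1% DMF and 1% Tween 20. Blue-dye exudation was scored visually at 30 min, giving % inhibition versus solvent controls.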

`Cc1ccnc(N2CCN(CCc3c(-c4ccc(OCCCCO)cc4)n4c5c(cccc35)CCC4)CC2)c1` [Example 12, 2-[4-(4-Hydroxybutyloxy)-phenyl]-1-{2-[4-(4-methylpyridin-2-yl)piperazin-1-yl]ethyl}-5,6-dihydro-4H-pyrrolo[3,2,1-ij]quinoline] was tested, and the inhibition in vivo at 20 µmol/kg [1] was 25% and the inhibition in vivo at 20 µmol/kg [2] was 25%.

With `COc1ccc(C2CCc3cccc4c(CCN5CCN(c6cc(C)ccn6)CC5)c(C)n2c34)cc1` (stereo not shown) [Example 59] the inhibition in vivo at 20 µmol/kg [1] was 95% and the inhibition in vivo at 20 µmol/kg [2] was 95%.

`CC(=O)Oc1cc2c3c(c1)c(CCN1CCN(c4cc(C)ccn4)CC1)c(C)n3CCC2` [Example 24, 8-Acetoxy-5,6-dihydro-2-methyl-1-{2-[4-(4-methyl-pyridin-2-yl)piperazin-1-yl]ethyl}-4H-pyrrolo[3,2,1-ij]quinoline] gave an inhibition in vivo at 20 µmol/kg [1] of 55% and an inhibition in vivo at 20 µmol/kg [2] of 60%.

`Cc1ccnc(N2CCN(CCc3c(C)n4c5c(cc(N(C)C)cc35)CCC4)CC2)c1` [Example 81] gave an inhibition in vivo at 20 µmol/kg [1] of 86% and an inhibition in vivo at 20 µmol/kg [2] of 82%.

For `Cc1ccnc(N2CCN(CCc3cn4c5c(cccc35)CCC4)CC2)c1` [Example 13, 5,6-Dihydro-1-{2-[4-(4-methylpyridin-2-yl)piperazin-1-yl]ethyl}-4H-pyrrolo[3,2,1-ij]quinoline], the inhibition in vivo at 20 µmol/kg [1] was 83% and the inhibition in vivo at 20 µmol/kg [2] was 68%.

Compound `CCc1c(C(O)CN2CCN(c3cc(C)ccn3)CC2)c2cccc3c2n1CCC3` (stereo not shown) [Example 14, 2-Ethyl-5,6-dihydro-1-{2-[4-(4-methylpyridin-2-yl)piperazin-1-yl]-1-hydroxyethyl}-4H-pyrrolo[3,2,1-ij]quinoline] has an inhibition in vivo at 20 µmol/kg [1] of 65% and an inhibition in vivo at 20 µmol/kg [2] of 25%.

Compound `Cc1ccnc(N2CCN(CCc3c(C)n4c5c(cc(N)cc35)CCC4)CC2)c1` [Example 20, 8-Amino-5,6-dihydro-2-methyl-1-{2-[4-(4-methylpyridin-2-yl)piperazin-1-yl]ethyl}-4H-pyrrolo[3,2,1-ij]quinoline] has an inhibition in vivo at 20 µmol/kg [1] of 100% and an inhibition in vivo at 20 µmol/kg [2] of 95%.

With `Cc1ccc(N2CCN(CCc3c(C)n4c5c(cccc35)CCC4)CC2)nc1` [Example 42] the inhibition in vivo at 20 µmol/kg [1] was 50% and the inhibition in vivo at 20 µmol/kg [2] was 45%.

With `Cc1ccnc(N2CCN(CCc3c(C)n4c5c(cc(NC(=O)C(C)C)cc35)CCC4)CC2)c1` [Example 60] the inhibition in vivo at 20 µmol/kg [1] was 100% and the inhibition in vivo at 20 µmol/kg [2] was 95%.

With `CCCCC1CCc2cc(O)cc3c(CCN4CCN(c5cc(C)ccn5)CC4)c(C)n1c23` (stereo not shown) [Example 76] the inhibition in vivo at 20 µmol/kg [1] was 100% and the inhibition in vivo at 20 µmol/kg [2] was 100%.

For `Cc1ccnc(N2CCN(CCc3c(-c4ccc(F)cc4)n4c5c(cccc35)CCC4)CC2)c1` [Example 47], the inhibition in vivo at 20 µmol/kg [1] was 50% and the inhibition in vivo at 20 µmol/kg [2] was 20%.

`Cc1ccnc(N2CCN(CCc3c(C)n4c5c(cc(CC(C)C)cc35)CCC4)CC2)c1` [Example 21, 5,6-Dihydro-2-methyl-8-(2-methylpropyl)-1-{2-[4-(4-methylpyridin-2-yl)piperazin-1-yl]ethyl}-4H-pyrrolo[3,2,1-ij]quinoline] was tested, and the inhibition in vivo at 20 µmol/kg [1] was 95% and the inhibition in vivo at 20 µmol/kg [2] was 90%.

`Cc1ccnc(N2CCN(CCc3c(CO)n4c5c(cccc35)CCC4)CC2)c1` [Example 16, 5,6-dihydro-2-hydroxymethyl-1-{2-[4-(4-methylpyridin-2-yl)piperazin-1-yl]ethyl}-4H-pyrrolo[3,2,1-ij]quinoline] showed an inhibition in vivo at 20 µmol/kg [1] of 85% and an inhibition in vivo at 20 µmol/kg [2] of 73%.

For `Cc1ccnc(N2CCN(CCc3c(C)n4c5c(ccc(C(=O)C(C)C)c35)SCC4)CC2)c1` [Example 91], the inhibition in vivo at 20 µmol/kg [1] was 86% and the inhibition in vivo at 20 µmol/kg [2] was 87%.
